# Measurements reported in publication PMC7898037, “Improving mitochondria and ER stability helps eliminate upper motor neuron degeneration that occurs due to mSOD1 toxicity and TDP‐43 pathology” (Clinical and Translational Medicine, 2021).
# Columns and labels:
# [1] = test system: misfolded SOD1 in UMNs of hSOD1^G93A‐UeGFP mice; test: Quantification of misfolded SOD1 (B8H10) in UMNs; format: in vivo; conditions: for misfolded SOD1 level in UMNs (average integrated density): hSOD1^G93A‐UeGFP mice
# Protocol: (§1) hSOD1^G93A‐UeGFP, prpTDP‐43^A315T‐UeGFP and WT‐UeGFP mice were weighed and the required NU‐9 dose per weight was calculated (20 or 100 mg/kg), which was administered once daily by oral gavage, starting at postnatal day (P)60 and continuing until P120. Animals from the untreated group received the vehicle (NMP and olive oil) only. For oral administration purposes, 20 ga × 38 mm plastic feeding tubes were used (Instech Laboratories, Inc). The gavage tip was inserted into the mouth directly over the tongue and into the pharynx. While observing the swallowing reflex, the tip was safely and smoothly slid into the esophagus. Once the administration was completed, the gavage tip was pulled straight out.
# The antibodies used are as follows: anti‐GFP (1:1000, Invitrogen; or 1:1000, Abcam) and anti‐misfolded SOD1 (B8H10, 1:250, Médimabs). Briefly, sections were treated with blocking solution (PBS, 0.05% BSA, 2% FBS, 1% Triton X‐100, and 0.1% saponin) for 30 min at room temperature and incubated with primary antibody diluted in blocking solution overnight at 4°C. Appropriate secondary fluorescent antibodies (1:500, AlexaFluor‐conjugated, Invitrogen) were added to the blocking solution at room temperature for 2 h in the dark.
# 50‐µm thick sections of primary motor cortex were captured using the 20× objective on an inverted epifluorescent Eclipse TE2000‐E microscope using the same settings and exposure time for all of the samples. eGFP positive (eGFP^+) UMNs in focal plane with sharp boundaries and a visible nucleus were traced using ImageJ (NIH). ROI were transferred to the misfolded SOD1 channel, and the integrated density was measured to determine the levels of misfolded SOD1 in GFP^+ UMNs only. Fifty to 90 UMNs were analyzed per mouse, and the average integrated density was reported per experimental group. For visualization purposes of misfolded SOD1 fluorescence intensity, nd2 files were opened in ImageJ and spectrum look‐up table (LUT) was applied to the appropriate channel.
# WT‐UeGFP mice = test: Rotarod test, WT‐UeGFP mice; format: in vivo; set-up: Rotarod, Mean Diff. (vehicle minus NU-9) / Rotarod, mean difference G vehicle vs. G NU-9 (20) / Rotarod, mean difference G vehicle vs. G NU-9 (100): unit not given here; conditions: for Rotarod, group mean (Mean 1 / Mean 2 of 2way ANOVA multiple comparisons): WT-UeGFP (G); for Rotarod, group mean (Mean 1 / Mean 2) / Rotarod, Mean Diff. (vehicle minus NU-9): WT-UeGFP mice; for Rotarod, Average / Rotarod, mean difference G vehicle vs. G NU-9 (20) / Rotarod, mean difference G vehicle vs. G NU-9 (100): WT-UeGFP; for Rotarod, mean difference G vehicle vs. G NU-9 (20): vehicle minus NU-9 20 mg/kg/day; for Rotarod, mean difference G vehicle vs. G NU-9 (100): vehicle minus NU-9 100 mg/kg/day
# Protocol: as §1
# Behavior data were collected from hSOD1^G93A‐UeGFP and WT‐UeGFP mice (starting at P60 and every 7 days until P116) and from prpTDP‐43^A315T‐UeGFP mice (at P60, P90, and P120) with the following number of mice for each group: WT‐UeGFP vehicle (n = 10), hSOD1^G93A‐UeGFP vehicle (n = 6), WT‐UeGFP 20 mg/kg/day NU‐9 (n = 5), hSOD1^G93A‐UeGFP 20 mg/kg/day NU‐9 (n = 7), WT‐UeGFP 100 mg/kg/day NU‐9 (n = 11), hSOD1^G93A‐UeGFP 100 mg/kg/day NU‐9 (n = 9), prpTDP‐43^A315T‐UeGFP untreated (n ≥ 3), and prpTDP‐43^A315T‐UeGFP 100 mg/kg/day NU‐9 (n = 4) (Table S3).
# Mice were placed on a rotating rod that accelerates linearly from 4 to 40 rpm (Rotarod, Ugo Basile), and the average time spent on the rotating rod for three consecutive trials was calculated for each mouse. Mice were allowed to run for a maximum of 5 min with a 5 min rest period between each run, and the latency to fall was recorded for three consecutive trials. The average of the three trials was taken as the data point for each mouse at the age tested, and the performance of different groups are reported as the mean ± SEM.
compound,measurement,setting,value
C[C@H](Oc1cc(C(F)(F)F)cc(C(F)(F)F)c1)C1CC(=O)CC(=O)C1 [NU‐9],Fig. 3E group mean (integrated density of misfolded SOD1 fluorescence in UMNs),[1]; hSOD1G93A-UeGFP (NU-9 20 mg/kg/day),132928
same,Fig. 3E group mean (integrated density of misfolded SOD1 fluorescence in UMNs),[1]; hSOD1G93A-UeGFP (NU-9 100 mg/kg/day),120052
same,misfolded SOD1 level in UMNs (average integrated density),[1]; 20 mg/kg/day oral gavage P60–P120,1.33 × 10^5 ± 0.11 × 10^5 au
same,misfolded SOD1 level in UMNs (average integrated density),[1]; 100 mg/kg/day oral gavage P60–P120,1.2 × 10^5 ± 0.07 × 10^5 au
same,"Rotarod, group mean (Mean 1 / Mean 2 of 2way ANOVA multiple comparisons)","WT‐UeGFP mice; NU-9 20 mg/kg/day, P102",295.1
same,"Rotarod, group mean (Mean 1 / Mean 2 of 2way ANOVA multiple comparisons)","WT‐UeGFP mice; NU-9 20 mg/kg/day, P109",291
same,"Rotarod, group mean (Mean 1 / Mean 2 of 2way ANOVA multiple comparisons)","WT‐UeGFP mice; NU-9 20 mg/kg/day, P116",298.9
same,"Rotarod, group mean (Mean 1 / Mean 2 of 2way ANOVA multiple comparisons)","WT‐UeGFP mice; NU-9 100 mg/kg/day, P102",251.4
same,"Rotarod, group mean (Mean 1 / Mean 2 of 2way ANOVA multiple comparisons)","WT‐UeGFP mice; NU-9 100 mg/kg/day, P109",241.3
same,"Rotarod, group mean (Mean 1 / Mean 2 of 2way ANOVA multiple comparisons)","WT‐UeGFP mice; NU-9 100 mg/kg/day, P116",221.3
same,"Rotarod, group mean (Mean 1 / Mean 2)","WT‐UeGFP mice; NU-9 20 mg/kg/day, P60",260.7
same,"Rotarod, group mean (Mean 1 / Mean 2)","WT‐UeGFP mice; NU-9 20 mg/kg/day, P67",279.2
same,"Rotarod, group mean (Mean 1 / Mean 2)","WT‐UeGFP mice; NU-9 20 mg/kg/day, P74",295.3
same,"Rotarod, group mean (Mean 1 / Mean 2)","WT‐UeGFP mice; NU-9 20 mg/kg/day, P81",286.1
same,"Rotarod, group mean (Mean 1 / Mean 2)","WT‐UeGFP mice; NU-9 20 mg/kg/day, P88",285.5
same,"Rotarod, group mean (Mean 1 / Mean 2)","WT‐UeGFP mice; NU-9 20 mg/kg/day, P95",279.3
same,"Rotarod, group mean (Mean 1 / Mean 2)","WT‐UeGFP mice; NU-9 100 mg/kg/day, P60",250.1
same,"Rotarod, group mean (Mean 1 / Mean 2)","WT‐UeGFP mice; NU-9 100 mg/kg/day, P67",261.4
same,"Rotarod, group mean (Mean 1 / Mean 2)","WT‐UeGFP mice; NU-9 100 mg/kg/day, P74",261.2
same,"Rotarod, group mean (Mean 1 / Mean 2)","WT‐UeGFP mice; NU-9 100 mg/kg/day, P81",258.5
same,"Rotarod, group mean (Mean 1 / Mean 2)","WT‐UeGFP mice; NU-9 100 mg/kg/day, P88",256.5
same,"Rotarod, group mean (Mean 1 / Mean 2)","WT‐UeGFP mice; NU-9 100 mg/kg/day, P95",262.2
same,"Rotarod, Mean Diff. (vehicle minus NU-9)","WT‐UeGFP mice; vehicle vs. NU-9 20 mg/kg/day, P60",10.27
same,"Rotarod, Mean Diff. (vehicle minus NU-9)","WT‐UeGFP mice; vehicle vs. NU-9 20 mg/kg/day, P67",-0.9667
same,"Rotarod, Mean Diff. (vehicle minus NU-9)","WT‐UeGFP mice; vehicle vs. NU-9 20 mg/kg/day, P74",-13.73
same,"Rotarod, Mean Diff. (vehicle minus NU-9)","WT‐UeGFP mice; vehicle vs. NU-9 20 mg/kg/day, P81",-2.267
same,"Rotarod, Mean Diff. (vehicle minus NU-9)","WT‐UeGFP mice; vehicle vs. NU-9 20 mg/kg/day, P88",-1.533
same,"Rotarod, Mean Diff. (vehicle minus NU-9)","WT‐UeGFP mice; vehicle vs. NU-9 20 mg/kg/day, P95",5.033
same,"Rotarod, Mean Diff. (vehicle minus NU-9)","WT‐UeGFP mice; vehicle vs. NU-9 20 mg/kg/day, P102",-24.77
same,"Rotarod, Mean Diff. (vehicle minus NU-9)","WT‐UeGFP mice; vehicle vs. NU-9 20 mg/kg/day, P109",-17.03
same,"Rotarod, Mean Diff. (vehicle minus NU-9)","WT‐UeGFP mice; vehicle vs. NU-9 20 mg/kg/day, P116",-40.09
same,"Rotarod, Mean Diff. (vehicle minus NU-9)","WT‐UeGFP mice; vehicle vs. NU-9 100 mg/kg/day, P60",20.91
same,"Rotarod, Mean Diff. (vehicle minus NU-9)","WT‐UeGFP mice; vehicle vs. NU-9 100 mg/kg/day, P67",16.81
same,"Rotarod, Mean Diff. (vehicle minus NU-9)","WT‐UeGFP mice; vehicle vs. NU-9 100 mg/kg/day, P74",20.39
same,"Rotarod, Mean Diff. (vehicle minus NU-9)","WT‐UeGFP mice; vehicle vs. NU-9 100 mg/kg/day, P81",25.41
same,"Rotarod, Mean Diff. (vehicle minus NU-9)","WT‐UeGFP mice; vehicle vs. NU-9 100 mg/kg/day, P88",27.48
same,"Rotarod, Mean Diff. (vehicle minus NU-9)","WT‐UeGFP mice; vehicle vs. NU-9 100 mg/kg/day, P95",22.09
same,"Rotarod, Mean Diff. (vehicle minus NU-9)","WT‐UeGFP mice; vehicle vs. NU-9 100 mg/kg/day, P102",18.94
same,"Rotarod, Mean Diff. (vehicle minus NU-9)","WT‐UeGFP mice; vehicle vs. NU-9 100 mg/kg/day, P109",32.69
same,"Rotarod, Mean Diff. (vehicle minus NU-9)","WT‐UeGFP mice; vehicle vs. NU-9 100 mg/kg/day, P116",37.47
same,"Rotarod, Average","WT‐UeGFP mice; NU-9 20 mg/kg/day po, P60",260.733 s
same,"Rotarod, Average","WT‐UeGFP mice; NU-9 20 mg/kg/day po, P67",279.2 s
same,"Rotarod, Average","WT‐UeGFP mice; NU-9 20 mg/kg/day po, P74",295.333 s
same,"Rotarod, Average","WT‐UeGFP mice; NU-9 20 mg/kg/day po, P81",286.133 s
same,"Rotarod, Average","WT‐UeGFP mice; NU-9 20 mg/kg/day po, P88",285.467 s
same,"Rotarod, Average","WT‐UeGFP mice; NU-9 20 mg/kg/day po, P95",279.267 s
same,"Rotarod, Average","WT‐UeGFP mice; NU-9 20 mg/kg/day po, P102",295.133 s
same,"Rotarod, Average","WT‐UeGFP mice; NU-9 20 mg/kg/day po, P109",291 s
same,"Rotarod, Average","WT‐UeGFP mice; NU-9 20 mg/kg/day po, P116",298.867 s
same,"Rotarod, Average","WT‐UeGFP mice; NU-9 100 mg/kg/day po, P60",250.091 s
same,"Rotarod, Average","WT‐UeGFP mice; NU-9 100 mg/kg/day po, P67",261.424 s
same,"Rotarod, Average","WT‐UeGFP mice; NU-9 100 mg/kg/day po, P74",261.212 s
same,"Rotarod, Average","WT‐UeGFP mice; NU-9 100 mg/kg/day po, P81",258.455 s
same,"Rotarod, Average","WT‐UeGFP mice; NU-9 100 mg/kg/day po, P88",256.455 s
same,"Rotarod, Average","WT‐UeGFP mice; NU-9 100 mg/kg/day po, P95",262.212 s
same,"Rotarod, Average","WT‐UeGFP mice; NU-9 100 mg/kg/day po, P102",251.424 s
same,"Rotarod, Average","WT‐UeGFP mice; NU-9 100 mg/kg/day po, P109",241.273 s
same,"Rotarod, Average","WT‐UeGFP mice; NU-9 100 mg/kg/day po, P116",221.303 s
same,"Rotarod, mean difference G vehicle vs. G NU-9 (20)",WT‐UeGFP mice; P102,-24.77
same,"Rotarod, mean difference G vehicle vs. G NU-9 (20)",WT‐UeGFP mice; P109,-17.03
same,"Rotarod, mean difference G vehicle vs. G NU-9 (20)",WT‐UeGFP mice; P116,-40.09
same,"Rotarod, mean difference G vehicle vs. G NU-9 (100)",WT‐UeGFP mice; P102,18.94
same,"Rotarod, mean difference G vehicle vs. G NU-9 (100)",WT‐UeGFP mice; P109,32.69
same,"Rotarod, mean difference G vehicle vs. G NU-9 (100)",WT‐UeGFP mice; P116,37.47
